Common to all, as to assay type: cell-based
The subject of experiment [1] is antibiotic resistant Staphylococcus. The following applies: conclusion from Table 1 MICs.
Experiment [2] relates to Escherichia coli ATCC25922. The experiment is described as follows: MIC of nematophin on candidate microbial pathogens (Escherichia coli ATCC25922). The following applies: 24 h, 35° C., Table 1, read-out: Minimum Inhibitory Concentration (MIC).
Another experiment deals with Botrytis cinerea. Description: MIC of nematophin on candidate microbial pathogens (Botrytis cinerea). Particulars: 48 h, 2 d, 24° C., Table 1, read-out: Minimum Inhibitory Concentration (MIC).
Experiment [3] relates to Staphylococcus aureus ATCC29213. Description: MIC of nematophin and its derivatives on Staphylococcus aureus ATCC29213.
In the next experiment the test system is S. aureus 0017. The experiment is described as follows: microbe, parasite or virus in culture. The following applies: Staphylococcus aureus, 0017, 24 h; read-out: Minimum Inhibitory Concentration (MIC).
The test system of a further experiment is Bacillus subtilis. The experiment is described as follows: MIC of nematophin on candidate microbial pathogens (Bacillus subtilis). The following applies: 24 h, 35° C., Table 1, read-out: Minimum Inhibitory Concentration (MIC).
The next experiment has as its system S. aureus 0012. Description: microbe, parasite or virus in culture. Particulars: Staphylococcus aureus, 0012, 24 h; read-out: Minimum Inhibitory Concentration (MIC).
In a further experiment the test system is Phytophthora infestans. The experiment is described as follows: microbe, parasite or virus in culture. The following applies: in Secale cereale, 96 h, read-out: Minimum Inhibitory Concentration (MIC).
The mark [4] stands for this setting: 24 h, 35° C., Table 1, read-out: Minimum Inhibitory Concentration (MIC).
The mark [5] stands for this setting: Table 2, similar bioassays as for nematophin, read-out: Minimum Inhibitory Concentration (MIC) of the derivatives of nematophin.

Converted amounts (≈) assume the structure as drawn. Like-named read-outs stand apart in the source and are kept apart here.

Consider `CCC(C)C(=O)C(=O)NCCc1c[nH]c2ccccc12` (single isomer, unassigned) [NID, 3-indoleethyl 3-methyl-2-oxo-pentanamide], for which the “antibiotic properties, in particular against antibiotic resistant Staphylococcus” value in experiment [1] is “potent properties”. The MIC was above 100 µg/mL in experiment [2]; 12 µg/mL in the experiment on Botrytis cinerea; 0.7 µg/mL in experiment [3] (setting [4]); 0.7 µg/mL (≈ 2.57 µM) in the experiment on S. aureus 0017; 12 µg/mL in the experiment with Bacillus subtilis; 0.7 µg/mL (≈ 2.57 µM) in the experiment with S. aureus 0012.

`CC(C)C(=O)C(=O)NCCc1c[nH]c2ccccc12` [MAMIDE]: the MIC in experiment [3] (setting [5]) is 3 µg/mL.

Consider `CCC(C)C(=O)C(=O)OCCc1c[nH]c2ccccc12` (stereo not shown) [OIN, 3-indoleethyl(3'-methyl-2'-oxo)pentanoate], for which, in experiment [3] (setting [5]), the MIC came to 25 µg/mL.

Regarding `CCC(C)C(=O)C(=O)NCCc1c[nH]c2cc(F)ccc12` (stereo not shown) [6-FIN], the MIC in experiment [3] (setting [5]) came to 0.7 µg/mL.

On to `CCC(C)C(=O)C(=O)NCCc1c[nH]c2ccccc12` (racemic) [SID, 3-indoleethyl(3'-methyl-2'-oxo)pentanamide], for which, in experiment [1], the “antibiotic properties, in particular against antibiotic resistant Staphylococcus” value was “potent properties”. Moreover, the MIC in experiment [2] is above 100 µg/mL; in the experiment on Botrytis cinerea, 12 µg/mL; with Phytophthora infestans, 2.5 µg/mL (≈ 9.18 µM); in experiment [3] (setting [4]), 1.5 µg/mL; in the experiment with S. aureus 0017, 1.5 µg/mL (≈ 5.51 µM); in the experiment with Bacillus subtilis, 12 µg/mL. Also, in the experiment on S. aureus 0012, the MIC came out at 1.5 µg/mL (≈ 5.51 µM).

On to `CCC(C)C(=O)C(=O)NCCc1c[nH]c2ccc(OC)cc12` (stereo not shown) [5-MeOIN], for which the MIC in experiment [3] (setting [5]) was 3 µg/mL.

Turning to `CCC(=O)C(=O)NCCc1c[nH]c2ccccc12` [BAMIDE, 3-indoleethyl(2'-oxo)butanamide], the MIC in experiment [3] (setting [5]) stood at 100 µg/mL.

Consider `CCC(C)C(=O)C(=O)NCCc1c[nH]c2ccc(C)cc12` (stereo not shown) [5-MeIN], for which the MIC in experiment [3] (setting [5]) stood at 3 µg/mL.

Regarding `CC(=O)C(=O)NCCc1c[nH]c2ccccc12` [PAMIDE, 3-indoleethyl(2'-oxo)propanamide], the MIC in experiment [3] (setting [5]) was 100 µg/mL.
